Measurements taken from patent US11583217B2, “Neurophysiological data analysis using spatiotemporal parcellation” (Firefly Neuroscience Ltd., priority 2012, dated 2023).

Experiments:
Type in all cases: in vivo, human
[1] = tested on: healthy volunteer subjects; assay: BNA pattern similarity from EEG data of healthy volunteers during attention oddball task, scopolamine vs placebo
Description: FIGS. 8A-8D show associated subject-specific BNA patterns constructed from EEG data recorded from two healthy volunteer subjects. The black dots in FIGS. 8A-8D show the locations of the EEG electrodes, and the color codes in these BNA patterns are the same as defined above. The subject-specific BNA patterns shown in FIGS. 8A-8D describe the association of the subjects to a group of healthy subjects following treatment with a placebo drug and while performing an attention task related oddball task.
FIGS. 8A and 8C are subject-specific BNA patterns constructed from EEG data collected from a first subject (FIG. 8A) and a second subject (FIG. 8C) following treatment with a placebo, and FIGS. 8B and 8D are subject-specific BNA patterns constructed from EEG data collected from the first subject (FIG. 8B) and the second subject (FIG. 8D) following treatment with a scopolamine drug. Scopolamine is an anticholinergic drug with inhibitory effect on M2-cholinergic receptors of excited type. It has an inhibitory effect on the cerebral cortex, typically inducing slight-anesthetic effect.
(§1) The calculated similarities are 0.937, 0.079, 1.0 and 0.94, respectively. It is recognized by the present inventors that these similarity values indicate that the responsivity to scopolamine is high for the first subject (FIGS. 8A and 8B) and low for the second subject (FIGS. 8C and 8D).

[2] = tested on: healthy volunteer subjects; assay: Clinical observation of behavioral endpoint following scopolamine; conditions: following treatment with scopolamine
Description: as §1

groups of subjects = assay: Group BNA patterns from EEG data during working memory test (cue/probe); conditions: vs placebo
Description: FIGS. 10A-10H show group BNA patterns constructed from EEG data recorded from two groups of subjects during a working memory test. The black dots in FIGS. 10A-10H show the locations of the EEG electrodes, and the color codes in these BNA patterns is the same as defined above. During the test, each subject of the group was asked to memorize an image of a human face (referred to as the “cue”). Two seconds later, the subject was again presented with an image of a human face (referred to as the “probe”) and was asked to determine whether the probe matches the cue.
FIGS. 10A and 10B are group BNA patterns constructed following treatment with a placebo (referred to below as placebo A), and FIGS. 10C and 10D are group BNA patterns constructed following treatment with a Scopolamine. The BNA patterns of the second group are shown in FIGS. 10E-10H, where FIGS. 10E and 10F are group BNA patterns constructed following treatment with a placebo (referred to below as placebo B), and FIGS. 10G and 10H are BNA patterns constructed following treatment with a Ketamine.
The BNA pattern of FIGS. 10A, 10C, 10E and 10G were constructed from the data acquired during the time at which the cue was presented and are recognized by the present inventor as containing information pertaining to the memorization process in the brain (also known in the literature as “encoding”). The BNA patterns of FIGS. 10B, 10D, 10F and 10H were constructed from the data acquired during the time at which the probe was presented, and are recognized by the present inventor as containing information pertaining to the retrieval process in the brain. It is noted that the BNA patterns of FIGS. 10A-10H describe differentiating activity networks. Thus, for example, the BNA pattern of FIG. 10A describes the brain activity during […] that most differentiated between placebo A and Scopolamine, and the BNA pattern of FIG. 10B describes the brain activity during […] that most differentiated between placebo B and Ketamine.

healthy volunteers = assay: Scopolamine induced cognitive impairment model, ΔBNA scores in Auditory Oddball Task; conditions: scopolamine 0.4 mg, Novel stimulus, connectivity score; only 2 patients on placebo
Description: The task chosen for this study was the Auditory Oddball Task, but other tasks are not excluded from the scope of the present invention. FIG. 21 is a schematic representation of an Auditory Oddball Task used in this study. The task included 600 repetitive 1000 ms auditory stimulations of which 80% were 2000 Hz stimuli (Frequent—blue circles), 10% were 1000 Hz stimuli requiring a motor response (Target—red circles) and 10% were rare non-targets composed of various sounds (Novel—yellow star). The stimuli were separated by 1500 ms intervals. The sound was delivered through a headset at a sound pressure level of 70 dB.
• Repeatability: Within-subject BNA score repeatability was assessed by computing the Intraclass Correlation. • Normality Tests: Normality of ΔBNA distributions was evaluated using the Kolmogorov-Smirnov test of normality (p≥0.200) and validated with corresponding Q-Q plots. • SEM Computation: The change over time in the BNA Scores of a subject/patient from baseline (ΔBNA) is evaluated in terms of standard error of measurements (SEM) against the Normative Database to determine likelihood of true change.
A pharmacological model study included 13 healthy volunteers of both genders, Aged 18-45. […] The second and third sessions were at random order, double blind. ΔBNA Score values (Baseline—Placebo and Baseline—Drug) were evaluated against SEM values. […]

ADHD subject = assay: BNA pattern similarity from EEG data of ADHD subjects treated with MPH
Description: The BNA patterns shown in FIGS. 6A-6D are associated subject-specific BNA patterns constructed from EEG data recorded from a particular ADHD subject. The black dots in FIGS. 6A-6D show the locations of the EEG electrodes. The color codes in these BNA patterns are the same as defined above. The subject-specific BNA patterns shown in FIGS. 6A-6B describe the association of the ADHD subject to a group of untreated ADHD subjects, and the BNA patterns shown in FIGS. 6C-6D describe the association of the ADHD subject to a group of ADHD subjects all treated with methylphenidate (MPH). The subject-specific BNA patterns shown in FIGS. 6A and 6C are based on EEG data recorded from the ADHD subject before any treatment, and subject-specific BNA patterns shown in FIGS. 6B and 6D are based on EEG data recorded from the ADHD subject following a treatment with MPH.
The baseline annotated BNA pattern constructed from the group of untreated ADHD subjects, and the baseline annotated BNA pattern constructed from the same group of subjects, but following treatment with MPH are shown in FIGS. 6E and 6F, respectively.
The calculated similarity corresponding to the BNA pattern of FIG. 6A is 0.73, the calculated similarity corresponding to the BNA pattern of FIG. 6B is 0.19, the calculated similarity corresponding to the BNA pattern of FIG. 6C is 0.56, and the calculated similarity corresponding to the BNA pattern of FIG. 6D is 0.6.
The BNA patterns shown in FIGS. 7A-7D were constructed from EEG data recorded from a different ADHD subject, which was also treated with MPH according to the same protocol as described above with respect to the responder subject of FIGS. 6A-6D. The black dots in FIGS. 7A-7D show the locations of the EEG electrodes, and the color codes in these BNA patterns is the same as defined above. Thus, the subject-specific BNA patterns shown in FIGS. 7A-7B describe the association of the ADHD subject to a group of untreated ADHD subjects, and the BNA patterns shown in FIGS. 7C-7D describe the association of the ADHD subject to a group of ADHD subjects all treated with methylphenidate (MPH). The subject-specific BNA patterns shown in FIGS. 7A and 7C are based on EEG data recorded from the ADHD subject before any treatment, and subject-specific BNA patterns shown in FIGS. 7B and 7D are based on EEG data recorded from the ADHD subject following a treatment with MPH.
The calculated similarity corresponding to the BNA pattern of FIG. 7A is 0, the calculated similarity corresponding to the BNA pattern of FIG. 7B is 0, the calculated similarity corresponding to the BNA pattern of FIG. 7C is 0.06, and the calculated similarity corresponding to the BNA pattern of FIG. 7D is 0.

SMILES	responsivity to scopolamine ([1]; first subject (FIGS. 8A and 8B))	BNA pattern similarity to baseline BNA pattern of placebo-treated healthy group ([1]; first subject, following scopolamine (FIG. 8B), 0.937 after placebo)	responsivity to scopolamine ([1]; second subject (FIGS. 8C and 8D))	BNA pattern similarity to baseline BNA pattern of placebo-treated healthy group ([1]; second subject, following scopolamine (FIG. 8D), 1.0 after placebo)	decrease in behavioral endpoint ([2]; first subject)	change in behavioral endpoint ([2]; second subject)	central and frontal activation in the group BNA pattern (groups of subjects)	fronto-parietal part of the group BNA pattern (groups of subjects)	patients with post-treatment BNA scores more than 2 SEM lower than the baseline score (healthy volunteers)	right lateralization in the group BNA pattern (groups of subjects)	responsiveness to treatment inferred from similarity values (ADHD subject; ADHD subject of FIGS. 6A-6D)	responsiveness to treatment inferred from similarity values (ADHD subject; ADHD subject of FIGS. 7A-7D)	BNA pattern similarity to baseline BNA pattern of untreated ADHD group (ADHD subject; different ADHD subject, following MPH (FIG. 7B), 0 before treatment)	BNA pattern similarity to baseline BNA pattern of MPH-treated ADHD group (ADHD subject; different ADHD subject, following MPH (FIG. 7D), 0.06 before treatment)	BNA pattern similarity to baseline BNA pattern of untreated ADHD group (ADHD subject; responder ADHD subject, following single dose MPH (FIG. 6B), 0.73 before treatment)	BNA pattern similarity to baseline BNA pattern of MPH-treated ADHD group (ADHD subject; responder ADHD subject, following single dose MPH (FIG. 6D), 0.56 before treatment)
CN1[C@@H]2C[C@@H](OC(=O)[C@H](CO)c3ccccc3)C[C@H]1[C@@H]1O[C@@H]12 [scopolamine]	high	0.079	low	0.94	70%	no change	extensive compensatory central and frontal activation	low connectivity between frontal and parietal regions	Eight out of 13	–	–	–	–	–	–	–
CNC1(c2ccccc2Cl)CCCCC1=O (stereo not drawn) [ketamine]	–	–	–	–	–	–	increased central and frontal activation	No significant change	–	decreased right lateralization	–	–	–	–	–	–
COC(=O)C(c1ccccc1)C1CCCCN1 (stereo not drawn) [MPH, methylphenidate]	–	–	–	–	–	–	–	–	–	–	responsive to the treatment	not responsive to the treatment	0	0	0.19	0.6
